The results in this text go back to patent US10626112B2, “Heterocyclic sulfonamide derivative and medicine comprising same” (EA PHARMA CO., LTD., priority 2014, dated 2020).

The target of this experiment is human TRPA1 (Homo sapiens (Human), UniProt O75762). The experiment can be described thus: Measurement of TRPA1 antagonist activity (1): intracellular calcium increase. The experiment is classed as cell-based. The settings on record: 293T cells transfected with human TRPA1 expression plasmid; allylisothiocyanate 20 μM stimulation; intracellular calcium fluorescence; read-out: hTRPA1 IC50. In short, it runs like this: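 HEK293T cells transiently transfected with full-length human TRPA1, loaded with Calcium4 dye in HBSS/20 mM HEPES pH 7.2. Test compound preincubated 10 min, then allylisothiocyanate added at 20 μM final and fluorescence change followed for 5 min. IC50 from sigmoid fit of percent inhibition relative to agonist and buffer controls.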
Chain of human TRPA1 (O75762 whole entry): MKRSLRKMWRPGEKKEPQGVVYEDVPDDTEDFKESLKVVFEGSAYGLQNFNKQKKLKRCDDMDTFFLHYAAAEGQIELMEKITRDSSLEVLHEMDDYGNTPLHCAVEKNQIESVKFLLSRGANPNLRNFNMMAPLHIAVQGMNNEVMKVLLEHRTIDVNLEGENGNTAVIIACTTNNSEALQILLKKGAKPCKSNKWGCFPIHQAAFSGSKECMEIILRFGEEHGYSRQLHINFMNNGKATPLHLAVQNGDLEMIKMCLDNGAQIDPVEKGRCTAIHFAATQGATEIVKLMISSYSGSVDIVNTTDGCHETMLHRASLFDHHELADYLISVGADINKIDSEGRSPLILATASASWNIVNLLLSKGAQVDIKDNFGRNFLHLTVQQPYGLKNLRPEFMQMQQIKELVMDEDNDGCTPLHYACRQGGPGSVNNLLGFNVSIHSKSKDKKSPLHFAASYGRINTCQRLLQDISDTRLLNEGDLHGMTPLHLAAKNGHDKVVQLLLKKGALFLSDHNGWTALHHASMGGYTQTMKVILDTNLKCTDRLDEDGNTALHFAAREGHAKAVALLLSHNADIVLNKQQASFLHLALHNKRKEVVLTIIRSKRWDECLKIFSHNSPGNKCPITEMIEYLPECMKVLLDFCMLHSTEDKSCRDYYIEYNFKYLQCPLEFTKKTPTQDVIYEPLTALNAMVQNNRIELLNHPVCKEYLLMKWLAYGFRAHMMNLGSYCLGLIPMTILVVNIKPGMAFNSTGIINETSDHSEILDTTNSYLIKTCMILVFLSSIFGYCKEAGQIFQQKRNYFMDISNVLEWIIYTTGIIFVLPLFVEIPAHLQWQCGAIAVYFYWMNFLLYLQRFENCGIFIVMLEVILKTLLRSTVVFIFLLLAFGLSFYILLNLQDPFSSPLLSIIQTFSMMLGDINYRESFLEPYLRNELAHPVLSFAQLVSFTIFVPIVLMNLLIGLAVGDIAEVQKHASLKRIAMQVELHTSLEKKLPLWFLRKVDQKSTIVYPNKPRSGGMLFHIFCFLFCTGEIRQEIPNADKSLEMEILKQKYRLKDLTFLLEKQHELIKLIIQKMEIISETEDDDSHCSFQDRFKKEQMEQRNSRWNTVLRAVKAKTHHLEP
(Calcium flux is commonly read through the fluorescence of an indicator in the cells.)
Regarding `O=C(NCc1ccc(O)c(-c2ccc(C(F)(F)F)cn2)c1)[C@@H]1CCCN1S(=O)(=O)c1cc2ccccc2o1` [Example 193, (2S)-1-(benzofuran-2-ylsulfonyl)-N-[[4-hydroxy-3-[5-(trifluoromethyl)-2-pyridyl]phenyl]methyl]pyrrolidine-2-carboxamide], the IC50 – broadly, the concentration needed to halve the response being measured – stood at 2.2 nM.

On to `O=C(NCc1cccc(-c2ncc(C(F)(F)F)cn2)c1)[C@@H]1CCCN1S(=O)(=O)c1cc2ccccc2o1` [Example 194, (2S)-1-(benzofuran-2-ylsulfonyl)-N-[[3-[5-(trifluoromethyl)pyrimidin-2-yl]phenyl]-methyl]pyrrolidine-2-carboxamide], for which the IC50 is 10 nM.

Regarding `O=C(NCc1cccc(-c2cnc(C(F)(F)F)nc2)c1)[C@@H]1CCCN1S(=O)(=O)c1cc2ccccc2o1` [Example 195, (2S)-1-(benzofuran-2-ylsulfonyl)-N-[[3-[2-(trifluoromethyl)pyrimidin-5-yl]phenyl]-methyl]pyrrolidine-2-carboxamide], the half-inhibitory concentration (IC50) was determined as 2.5 nM.

For the molecule `O=C(NCc1cccc(-c2cnc(C(F)(F)F)cn2)c1)[C@@H]1CCCN1S(=O)(=O)c1cc2ccccc2o1` [Example 196, (2S)-1-(benzofuran-2-ylsulfonyl)-N-[[3-[5-(trifluoromethyl)pyrazin-2-yl]phenyl]methyl]-pyrrolidine-2-carboxamide], the IC50 worked out at 2.9 nM.

As for `O=C(NCc1cccc(-c2ccc(C(F)(F)F)nn2)c1)[C@@H]1CCCN1S(=O)(=O)c1cc2ccccc2o1` [Example 197, (2S)-1-(benzofuran-2-ylsulfonyl)-N-[[3-[6-(trifluoromethyl)pyridazin-3-yl]phenyl]methyl]-pyrrolidine-2-carboxamide], the IC50 turned out to be 3 nM.

Regarding `O=C(NCc1ccnc(-c2ccc(Cl)cc2)c1)[C@@H]1CCCN1S(=O)(=O)c1cc2ccccc2o1` [Example 198, (2S)-1-(benzofuran-2-ylsulfonyl)-N-[[2-(4-chlorophenyl)-4-pyridyl]methyl]pyrrolidine-2-carboxamide], the IC50 was found to be 13 nM.

Take `O=C(NCc1ccnc(-c2cnc(C(F)(F)F)nc2)c1)[C@@H]1CCCN1S(=O)(=O)c1cc2ccccc2o1` [Example 199, (2S)-1-(benzofuran-2-ylsulfonyl)-N-[[2-[2-(trifluoromethyl)pyrimidin-5-yl]-4-pyridyl]methyl]pyrrolidine-2-carboxamide]: the half-maximal inhibitory concentration (IC50) was determined as 5 nM.

Take `O=C(NCc1cc(-c2cnc(C(F)(F)F)nc2)ccn1)[C@@H]1CCCN1S(=O)(=O)c1cc2ccccc2o1` [Example 200, (2S)-1-(benzofuran-2-ylsulfonyl)-N-[[4-[2-(trifluoromethyl)pyrimidin-5-yl]-2-pyridyl]methyl]pyrrolidine-2-carboxamide]: the IC50 stood at 16 nM.

Turning to `O=C(NCc1cc(-c2cnc(C(F)(F)F)cn2)ccn1)[C@@H]1CCCN1S(=O)(=O)c1cc2ccccc2o1` [Example 201, (2S)-1-(benzofuran-2-ylsulfonyl)-N-[[4-[5-(trifluoromethyl)pyrazin-2-yl]-2-pyridyl]methyl]pyrrolidine-2-carboxamide], the concentration for half-maximal inhibition (IC50) came out at 8.6 nM.

Take `O=C(NCc1cc(-c2ccc(C(F)(F)F)nn2)ccn1)[C@@H]1CCCN1S(=O)(=O)c1cc2ccccc2o1` [Example 202, (2S)-1-(benzofuran-2-ylsulfonyl)-N-[[4-[6-(trifluoromethyl)pyridazin-3-yl]-2-pyridyl]methyl]pyrrolidine-2-carboxamide]: the IC50 amounted to 4.3 nM.

`O=C(NCc1cc(-c2ccc(OC(F)(F)F)cc2)ncn1)[C@@H]1CCCN1S(=O)(=O)c1cc2ccccc2o1` [Example 203, (2S)-1-(benzofuran-2-ylsulfonyl)-N-[[6-[4-(trifluoromethoxy)phenyl]-pyrimidin-4-yl]methyl]pyrrolidine-2-carboxamide]: the 50% inhibitory concentration (IC50) worked out at 3.2 nM.

For `O=C(NCc1ccnc(-c2ccc(OCC(F)(F)F)cc2)c1)[C@@H]1CCCN1S(=O)(=O)c1cc2ccccc2o1` [Example 204, (2S)-1-(benzofuran-2-ylsulfonyl)-N-[[2-[4-(2,2,2-trifluoroethoxy)phenyl]-4-pyridyl]methyl]pyrrolidine-2-carboxamide], the IC50 is 35 nM.

For the molecule `O=C(NCc1cc(-c2ccc(C(F)(F)F)nc2)ncn1)[C@@H]1CCCN1S(=O)(=O)c1cc2ccccc2o1` [Example 205, (2S)-1-(benzofuran-2-ylsulfonyl)-N-[[6-[6-(trifluoromethyl)-3-pyridyl]pyrimidin-4-yl]methyl]pyrrolidine-2-carboxamide], the IC50 is 4 nM.

With `O=C(NCc1cc(-c2ccc(C(F)(F)F)cn2)ncn1)[C@@H]1CCCN1S(=O)(=O)c1cc2ccccc2o1` [Example 206, (2S)-1-(benzofuran-2-ylsulfonyl)-N-[[6-[5-(trifluoromethyl)-2-pyridyl]pyrimidin-4-yl]methyl]pyrrolidine-2-carboxamide], the IC50 is 12 nM.

As for `O=C(NCc1cc(-c2cnc(C(F)(F)F)nc2)ncn1)[C@@H]1CCCN1S(=O)(=O)c1cc2ccccc2o1` [Example 207, (2S)-1-(benzofuran-2-ylsulfonyl)-N-[[6-[2-(trifluoromethyl)pyrimidin-5-yl]pyrimidin-4-yl]methyl]pyrrolidine-2-carboxamide], the half-inhibitory concentration (IC50) is 4 nM.

As for `O=C(NCc1cnnc(-c2ccc(C(F)(F)F)cc2)c1)[C@@H]1CCCN1S(=O)(=O)c1cc2ccccc2o1` [Example 208, (2S)-1-(benzofuran-2-ylsulfonyl)-N-[[6-[4-(trifluoromethyl)phenyl]-pyridazin-4-yl]methyl]pyrrolidine-2-carboxamide], the IC50 was 34 nM.

As to `O=C(NCc1cnnc(-c2ccc(C(F)(F)F)nc2)c1)[C@@H]1CCCN1S(=O)(=O)c1cc2ccccc2o1` [Example 209, (2S)-1-(benzofuran-2-ylsulfonyl)-N-[[6-[6-(trifluoromethyl)-3-pyridyl]pyridazin-4-yl]methyl]pyrrolidine-2-carboxamide], the IC50 was 110 nM.

With `O=C(NCc1cc(-c2ccc(C(F)(F)F)cc2)cnn1)[C@@H]1CCCN1S(=O)(=O)c1cc2ccccc2o1` [Example 210, (2S)-1-(benzofuran-2-ylsulfonyl)-N-[[5-[4-(trifluoromethyl)phenyl]-pyridazin-3-yl]methyl]pyrrolidine-2-carboxamide], the IC50 was 19 nM.

On to `O=C(NCc1cc(-c2ccc(C(F)(F)F)nc2)cnn1)[C@@H]1CCCN1S(=O)(=O)c1cc2ccccc2o1` [Example 211, (2S)-1-(benzofuran-2-ylsulfonyl)-N-[[5-[6-(trifluoromethyl)-3-pyridyl]pyridazin-3-yl]methyl]pyrrolidine-2-carboxamide], for which the half-maximal inhibitory concentration (IC50) amounted to 72 nM.

Take `O=C(NCc1cc(-c2ccc(C(F)(F)F)cn2)cnn1)[C@@H]1CCCN1S(=O)(=O)c1cc2ccccc2o1` [Example 212, (2S)-1-(benzofuran-2-ylsulfonyl)-N-[[5-[5-(trifluoromethyl)-2-pyridyl]pyridazin-3-yl]methyl]pyrrolidine-2-carboxamide]: the 50% inhibitory concentration (IC50) came out at 27 nM.

Regarding `O=C(NCc1ccc(O)c(-c2ncc(C(F)(F)F)cn2)c1)[C@@H]1CCCN1S(=O)(=O)c1cc2ccccc2o1` [Example 213, (2S)-1-(benzofuran-2-ylsulfonyl)-N-[[4-hydroxy-3-[5-(trifluoromethyl)-pyrimidin-2-yl]phenyl]-methyl]pyrrolidine-2-carboxamide], the IC50 amounted to 47 nM.

In the case of `O=C(NCc1ccc(O)c(-c2cnc(C(F)(F)F)cn2)c1)[C@@H]1CCCN1S(=O)(=O)c1cc2ccccc2o1` [Example 214, (2S)-1-(benzofuran-2-ylsulfonyl)-N-[[4-hydroxy-3-[5-(trifluoromethyl)-pyrazin-2-yl]phenyl]-methyl]pyrrolidine-2-carboxamide], the 50% inhibitory concentration (IC50) came to 13 nM.

`O=C(NCc1cc(-c2ccc(C(F)(F)F)cn2)c(O)cn1)[C@@H]1CCCN1S(=O)(=O)c1cc2ccccc2o1` [Example 215, (2S)-1-(benzofuran-2-ylsulfonyl)-N-[[5-hydroxy-4-[5-(trifluoromethyl)-2-pyridyl]-2-pyridyl]methyl]pyrrolidine-2-carboxamide]: the IC50 came out at 2.1 nM.

In the case of `O=C(NC1(c2cc(Cl)cc(-c3ccc(C(F)(F)F)nc3)c2)CC1)[C@@H]1CCCN1S(=O)(=O)c1cc2ccccc2o1` [Example 216, (2S)-1-(benzofuran-2-ylsulfonyl)-N-[1-[3-chloro-5-[6-(trifluoromethyl)-3-pyridyl]phenyl]cyclopropyl]-pyrrolidine-2-carboxamide], the 50% inhibitory concentration (IC50) was determined as 13 nM.

`O=C(NC1(c2ccnc(-c3ccc(C(F)(F)F)cc3)c2)CC1)[C@@H]1CCCN1S(=O)(=O)c1cc2ccccc2o1` [Example 217, (2S)-1-(benzofuran-2-ylsulfonyl)-N-[1-[2-[4-(trifluoromethyl)phenyl]-4-pyridyl]cyclopropyl]-pyrrolidine-2-carboxamide]: the concentration for half-maximal inhibition (IC50) turned out to be 64 nM.

`O=C(NC1(c2ccnc(-c3ccc(C(F)(F)F)nc3)c2)CC1)[C@@H]1CCCN1S(=O)(=O)c1cc2ccccc2o1` [Example 218, (2S)-1-(benzofuran-2-ylsulfonyl)-N-[1-[2-[6-(trifluoromethyl)-3-pyridyl]-4-pyridyl]cyclopropyl]-pyrrolidine-2-carboxamide]: the IC50 was 96 nM.

As for `O=C(NCc1ccnc(-c2ccc(C(F)(F)F)cc2)c1)[C@@H]1CCCN1S(=O)(=O)c1cc2cccc(F)c2o1` [Example 219, (2S)-1-(7-fluorobenzofuran-2-yl)sulfonyl-N-[[2-[4-(trifluoromethyl)phenyl]-4-pyridyl]methyl]pyrrolidine-2-carboxamide], the IC50 stood at 390 nM.

As to `O=C(NCc1ccnc(-c2ccc(C(F)(F)F)cc2)c1)[C@@H]1CCCN1S(=O)(=O)c1cc2ccc(F)cc2o1` [Example 220, (2S)-1-(6-fluorobenzofuran-2-yl)sulfonyl-N-[[2-[4-(trifluoromethyl)phenyl]-4-pyridyl]methyl]pyrrolidine-2-carboxamide], the IC50 was 54 nM.

Turning to `O=C(NCc1ccnc(-c2ccc(C(F)(F)F)cn2)c1)[C@@H]1CCCN1S(=O)(=O)c1cc2cc(F)ccc2o1` [Example 221, (2S)-1-(5-fluorobenzofuran-2-yl)sulfonyl-N-[[2-[5-(trifluoromethyl)-2-pyridyl]-4-pyridyl]methyl]pyrrolidine-2-carboxamide], the IC50 was found to be 6.6 nM.
